Assay results reported in ChEMBL document CHEMBL6087416, “Discovery of novel fused-heterocycle-bearing diarypyrimidine derivatives as HIV-1 potent NNRTIs targeting tolerant region I for enhanced antiviral activity and resistance profile” (Eur J Med Chem, 2025).

System: Human immunodeficiency virus 1
Assay: Antiviral activity against NNRTI-resistant HIV-1 harboring RT E138K mutant infected in human MT4 cells assessed as protection against virus-induced cytopathic effect incubated for 5 days by MTT assay
Format: functional, organism-based
Details: Human immunodeficiency virus 1, MT4, 120 h
In the case of `O=C1Nc2ccc(Cl)cc2[C@@](C#CC2CC2)(C(F)(F)F)O1` [EFAVIRENZ], the EC50 is reported as 9 nM.

System: Human immunodeficiency virus 1
Assay: not given
Format: functional, organism-based
Details: Human immunodeficiency virus 1, MT4, 120 h
`O=C1Nc2ccc(Cl)cc2[C@@](C#CC2CC2)(C(F)(F)F)O1` [EFAVIRENZ] gave an EC50 of 9 nM.

System: Human immunodeficiency virus 1
Assay: not given
Format: functional, organism-based
Details: Human immunodeficiency virus 1, MT4, 120 h
Remark: another data set of the same source
In the case of `Cc1cc(C#N)cc(C)c1Oc1nc(Nc2ccc(C#N)cc2)nc(N)c1Br` [ETRAVIRINE], the EC50 is reported as 31 nM.

System: Human immunodeficiency virus 1
Assay: not given
Format: functional, organism-based
Details: Human immunodeficiency virus 1, RES056, MT4, 120 h
With `Cc1cc(/C=C/C#N)cc(C)c1Oc1ccnc(Nc2ccc3sccc3c2)n1` the EC50 was greater than 1710 nM.
Work on `Cc1cc(/C=C/C#N)cc(C)c1Oc1ccnc(Nc2ccc3nc(C#N)sc3c2)n1` yielded an EC50 greater than 81600 nM.
Compound `Cc1nc2cc(Nc3nccc(Oc4c(C)cc(/C=C/C#N)cc4C)n3)ccc2o1` has an EC50 greater than 1000 nM.
In the case of `Cc1cc(/C=C/C#N)cc(C)c1Oc1ccnc(Nc2ccc3c(c2)CCN(C(=O)CS(C)(=O)=O)C3)n1`, the EC50 is reported as greater than 5950 nM.
Compound `Cc1cc(/C=C/C#N)cc(C)c1Oc1ccnc(Nc2ccc3c(C)cc(=O)oc3c2)n1` has an EC50 greater than 47100 nM.
`Cc1cc(/C=C/C#N)cc(C)c1Oc1ccnc(Nc2ccc3ncsc3c2)n1` showed an EC50 of 2870 nM.
For `Cc1cc(C#N)cc(C)c1Oc1nc(Nc2ccc(C#N)cc2)nc(N)c1Br` [ETRAVIRINE], the EC50 was 32 nM.

System: Human immunodeficiency virus 1
Assay: not given
Format: functional, organism-based
Details: Human immunodeficiency virus 1, MT4, 120 h
Remark: another data set of the same source
Compound `Cc1cc(C#N)cc(C)c1Oc1nc(Nc2ccc(C#N)cc2)nc(N)c1Br` [ETRAVIRINE] has an EC50 of 17 nM.

System: not listed separately
Assay: Cytotoxicity against human MT4 cells assessed as reduction in cell viability measured after 5 days by MTT assay
Format: toxicity, cell-based
Details: time 5 day
`Cc1cc(/C=C/C#N)cc(C)c1Oc1ccnc(Nc2ccc3sccc3c2)n1` showed a CC50 at 120 h of 1710 nM.
`Cc1cc(/C=C/C#N)cc(C)c1Oc1ccnc(Nc2ccc3nc(C#N)sc3c2)n1` showed a CC50 at 120 h of 81600 nM.
With `Cc1nc2cc(Nc3nccc(Oc4c(C)cc(/C=C/C#N)cc4C)n3)ccc2o1` the CC50 at 120 h was 1000 nM.
With `Cc1cc(/C=C/C#N)cc(C)c1Oc1ccnc(Nc2ccc3c(c2)CCN(C(=O)CS(C)(=O)=O)C3)n1` the CC50 at 120 h was 5950 nM.
In the case of `Cc1cc(/C=C/C#N)cc(C)c1Oc1ccnc(Nc2ccc3c(C)cc(=O)oc3c2)n1`, the CC50 at 120 h is reported as greater than 47100 nM.
Compound `Cc1cc(/C=C/C#N)cc(C)c1Oc1ccnc(Nc2ccc3ncsc3c2)n1` has a CC50 at 120 h of 46000 nM.
Compound `O=C1Nc2ccc(Cl)cc2[C@@](C#CC2CC2)(C(F)(F)F)O1` [EFAVIRENZ] has a CC50 at 120 h greater than 6340 nM.
With `Cc1cc(C#N)cc(C)c1Oc1nc(Nc2ccc(C#N)cc2)nc(N)c1Br` [ETRAVIRINE] the CC50 at 120 h was greater than 4590 nM.

System: Human immunodeficiency virus 2
Assay: Antiviral activity against HIV-2 ROD infected in human MT4 cells assessed as protection against virus-induced cytopathic effect incubated for 5 days by MTT assay
Format: functional, organism-based
Details: Human immunodeficiency virus 2, ROD, MT4, 120 h
Work on `Cc1cc(/C=C/C#N)cc(C)c1Oc1ccnc(Nc2ccc3sccc3c2)n1` yielded an EC50 greater than 1710 nM.
In the case of `Cc1cc(/C=C/C#N)cc(C)c1Oc1ccnc(Nc2ccc3nc(C#N)sc3c2)n1`, the EC50 is reported as greater than 81600 nM.
In the case of `Cc1nc2cc(Nc3nccc(Oc4c(C)cc(/C=C/C#N)cc4C)n3)ccc2o1`, the EC50 is reported as greater than 1000 nM.
Compound `Cc1cc(/C=C/C#N)cc(C)c1Oc1ccnc(Nc2ccc3c(c2)CCN(C(=O)CS(C)(=O)=O)C3)n1` has an EC50 greater than 5950 nM.
With `Cc1cc(/C=C/C#N)cc(C)c1Oc1ccnc(Nc2ccc3c(C)cc(=O)oc3c2)n1` the EC50 was greater than 47100 nM.
For `Cc1cc(/C=C/C#N)cc(C)c1Oc1ccnc(Nc2ccc3ncsc3c2)n1`, the EC50 was greater than 46000 nM.
Work on `O=C1Nc2ccc(Cl)cc2[C@@](C#CC2CC2)(C(F)(F)F)O1` [EFAVIRENZ] yielded an EC50 greater than 6340 nM.
Compound `Cc1cc(C#N)cc(C)c1Oc1nc(Nc2ccc(C#N)cc2)nc(N)c1Br` [ETRAVIRINE] has an EC50 greater than 4590 nM.

Target: Human immunodeficiency virus type 1 reverse transcriptase (Human immunodeficiency virus 1, UniProt Q72547)
Assay: Inhibition of wild type HIV-1 Reverse transcriptase incubated for 1 hrs by ELISA analysis
Details: not given
For `Cc1cc(/C=C/C#N)cc(C)c1Oc1ccnc(Nc2ccc3sccc3c2)n1`, the IC50 was 45 nM.
For `Cc1cc(/C=C/C#N)cc(C)c1Oc1ccnc(Nc2ccc3nc(C#N)sc3c2)n1`, the IC50 was 1130 nM.
Work on `Cc1nc2cc(Nc3nccc(Oc4c(C)cc(/C=C/C#N)cc4C)n3)ccc2o1` yielded an IC50 of 53 nM.
Work on `Cc1cc(/C=C/C#N)cc(C)c1Oc1ccnc(Nc2ccc3c(c2)CCN(C(=O)CS(C)(=O)=O)C3)n1` yielded an IC50 of 120 nM.
Compound `Cc1cc(/C=C/C#N)cc(C)c1Oc1ccnc(Nc2ccc3c(C)cc(=O)oc3c2)n1` has an IC50 of 78 nM.
`Cc1cc(/C=C/C#N)cc(C)c1Oc1ccnc(Nc2ccc3ncsc3c2)n1` showed an IC50 of 70 nM.

System: not listed separately
Assay: in vitro
Details: human, MT4 cells
Description: Selectivity index, ratio of CC50 for human MT4 cells to EC50 for wild type HIV-1 IIIB infected in human MT4 cells
`Cc1cc(/C=C/C#N)cc(C)c1Oc1ccnc(Nc2ccc3sccc3c2)n1` gave a selectivity ratio of 221.
Work on `Cc1cc(/C=C/C#N)cc(C)c1Oc1ccnc(Nc2ccc3nc(C#N)sc3c2)n1` yielded a selectivity ratio of 1330.
`Cc1nc2cc(Nc3nccc(Oc4c(C)cc(/C=C/C#N)cc4C)n3)ccc2o1` showed a selectivity ratio of 129.
Work on `Cc1cc(/C=C/C#N)cc(C)c1Oc1ccnc(Nc2ccc3c(c2)CCN(C(=O)CS(C)(=O)=O)C3)n1` yielded a selectivity ratio of 642.
Work on `Cc1cc(/C=C/C#N)cc(C)c1Oc1ccnc(Nc2ccc3c(C)cc(=O)oc3c2)n1` yielded a selectivity ratio greater than 2590.
For `Cc1cc(/C=C/C#N)cc(C)c1Oc1ccnc(Nc2ccc3ncsc3c2)n1`, the selectivity ratio was 5140.

System: not listed separately
Assay: in vitro
Details: human, MT4 cells
Remark: another data set of the same source
Description: Selectivity index, ratio of CC50 for human MT4 cells to EC50 for HIV-1 RES056 harboring RT K103N/Y181C mutant infected in human MT4 cells
Compound `Cc1cc(/C=C/C#N)cc(C)c1Oc1ccnc(Nc2ccc3ncsc3c2)n1` has a selectivity ratio of 16.

System: Human immunodeficiency virus 1
Assay: microbe, parasite or virus in culture
Details: Human immunodeficiency virus 1, IIIB, MT4, 120 h
Description: Antiviral activity against wild type HIV-1 IIIB infected in human MT4 cells assessed as protection against virus-induced cytopathic effect incubated for 5 days by MTT assay
Compound `Cc1cc(/C=C/C#N)cc(C)c1Oc1ccnc(Nc2ccc3sccc3c2)n1` has an EC50 of 8 nM.
`Cc1cc(/C=C/C#N)cc(C)c1Oc1ccnc(Nc2ccc3nc(C#N)sc3c2)n1` showed an EC50 of 61 nM.
Compound `Cc1nc2cc(Nc3nccc(Oc4c(C)cc(/C=C/C#N)cc4C)n3)ccc2o1` has an EC50 of 8 nM.
In the case of `Cc1cc(/C=C/C#N)cc(C)c1Oc1ccnc(Nc2ccc3c(c2)CCN(C(=O)CS(C)(=O)=O)C3)n1`, the EC50 is reported as 9 nM.
In the case of `Cc1cc(/C=C/C#N)cc(C)c1Oc1ccnc(Nc2ccc3c(C)cc(=O)oc3c2)n1`, the EC50 is reported as 18 nM.
`Cc1cc(/C=C/C#N)cc(C)c1Oc1ccnc(Nc2ccc3ncsc3c2)n1` showed an EC50 of 9 nM.
